Columns and labels:
[1] = tested on: perception of the earthy olfactory note; assay: Sensory test: expert panel rating of odor intensity of earthy compounds without and with nefopam (Tedlar bags); assay type: in vivo, human; conditions: for Odor intensity without Nefopam, note A: earthy: scale 0 (no odor) to 5 (saturating odor), resolution 0.5, panel of five assessors; for Odor intensity of Geosmin with nefopam enantiomer as blocker, note A: earthy / Odor intensity of Geosmin with nefopam enantiomer as blocker, note B: camphoreous: Geosmin + enantiomer free base
Protocol: The composition comprising nefopam was prepared by diluting racemic nefopam in its free base form in ethanol at a concentration of 107 mg/ml The test comprised in a first step, microinjecting the earthy compound, nefopam or earthy compound+nefopam in 20 L TedlarTM bags specially conceived for gas sampling, previously loaded with a known volume of pure air (from oil free compressor with additional charcoal filters). The earthy compounds were solubilized in ethanol at a suitable concentration (see table 2) and injected in the 20 L […] bag. The final concentration in the bag varied between 7 mg/m^3' to 383 mg/m^3, (table 2), depending on the odor strength of the compound while the concentration of nefopam in the bags was fixed at 54 mg/m^3. [table] The odor presentation device comprised a cylinder filled with clean air. The bag was inserted in the cylinder and connected to a sampling installation in the cylinder by means of a valve. By controlled injection of clean air into the cylinder, the interior pressure was raised and the sampling air was pressed in a controlled manner out of the sample container through the opened valve. This sampling air was transferred to the nose of the corresponding sensory odor panel member by means of a funnel. By this means, each sensory odor panel member received an identical sample with a standardized volume flow and a constant provision time. The outlet flow rate was between 10-20 L/min (in order to avoid any mixing with ambient air before reaching the nose). The expert panel of five assessors entered the room 15 minutes before starting the test. The basic standard test was a rating in intensity and the use of the closest chemical descriptors according to the following order of presentation: 1. earthy compound 2. Mix: earthy compound (at same concentrations as for 1)+Nefopam. Each assessor could smell for few seconds. A pause of minimum 1 minute was considered between presentations. The individual rating was done with a resolution of 0.5 on a scale ranging from 0 (no odor) to 5 (saturating odor). Both enantiomers of nefopam, (+)-nefopam and (-)-nefopam in their free base from obtained as described in examples 1 and 2, respectively, were assessed separately as blockers of the perception of the earthy note of geosmin, using the same procedure as described in example 3.

human nose = conditions: as low as; cited from earlier work
[2] = earthy compound alone in bag at Table 2 concentration
[3] = earthy compound alone in bag at Table 2 concentration, scale 0 to 5
[4] = Example 4, Geosmin alone, same procedure as example 3, scale 0 to 5
[5] = Example 4, same procedure as example 3, scale 0 to 5
[6] = 2-ethylfenchol 188 mg/m^3 + racemic nefopam free base 54 mg/m^3 in bag, scale 0 to 5
[7] = 2-methylisoborneol 150 mg/m^3 + racemic nefopam free base 54 mg/m^3 in bag, scale 0 to 5
[8] = Ambrinol R 29 mg/m^3 + racemic nefopam free base 54 mg/m^3 in bag, scale 0 to 5
[9] = Ambrinol S 26 mg/m^3 + racemic nefopam free base 54 mg/m^3 in bag, scale 0 to 5
[10] = Ambrinol racemic 25 mg/m^3 + racemic nefopam free base 54 mg/m^3 in bag, scale 0 to 5
[11] = Geosmin 19 mg/m^3 + racemic nefopam free base 54 mg/m^3 in bag, scale 0 to 5
[12] = Huminol 11 mg/m^3 + racemic nefopam free base 54 mg/m^3 in bag, scale 0 to 5
[13] = Methyl geosmin 7 mg/m^3 + racemic nefopam free base 54 mg/m^3 in bag, scale 0 to 5
[14] = Patchouli oil 383 mg/m^3 + racemic nefopam free base 54 mg/m^3 in bag, scale 0 to 5
[15] = earthy compounds of Table 3, nefopam 54 mg/m^3

## CCC1(O)C2(C)CCC(C2)C1(C)C (centres unmarked) [2-ethylfenchol, 6-ethyl-1,5,5-trimethylbicyclo[2.2.1]heptan-6-ol]
[1]; [2]
  Odor intensity without Nefopam, note A: earthy: 3
[1]; [3]
  Odor intensity without Nefopam, note B: camphoreous: 3.5

## CC1CCCC2(C)CCCCC12O (centres unmarked) [Geosmin, 4,8a-dimethyl-1,2,3,4,5,6,7,8-octahydronaphthalen-4a-ol]
[1]; [4]
  Odor intensity without blocker, note A: earthy: 3
  Odor intensity without blocker, note B: camphoreous: 3
[1]; [2]
  Odor intensity without Nefopam, note A: earthy: 3
[1]; [3]
  Odor intensity without Nefopam, note B: camphoreous: 3
Human nose
  Detection threshold (human nose): 10 ng/L

## CCC1(O)C2(C)CCCC1(C)CC2 (centres unmarked) [Huminol, 8-ethyl-1,5-dimethylbicyclo[3.2.1]octan-8-ol]
[1]; [2]
  Odor intensity without Nefopam, note A: earthy: 2.5
[1]; [3]
  Odor intensity without Nefopam, note B: camphoreous: 2.5

## CC1(O)CCC2C(=CCCC2(C)C)C1 (racemic) [Ambrinol racemic, 2,5,5-trimethyl-1,3,4,4a,6,7-hexahydronaphthalen-2-ol]
[1]; [2]
  Odor intensity without Nefopam, note A: earthy: 1.5
[1]; [3]
  Odor intensity without Nefopam, note B: α-pinene: 2.5

## CC1(C)CCCC2(C)CCCCC12O (centres unmarked) [Methyl Geosmin, 4,4,8a-trimethyl-1,2,3,4,5,6,7,8-octahydronaphthalen-4a-ol]
[1]; [2]
  Odor intensity without Nefopam, note A: earthy: 2.5
[1]; [3]
  Odor intensity without Nefopam, note B: α-pinene: 1.5

## CC1(C)CCC=C2C[C@](C)(O)CC[C@@H]21 [Ambrinol S, (2R, 4aR)-(+)-2,5,5-Trimethyl-1,2,3,4,4a,5,6,7-octahydro-naphthalen-2-ol]
[1]; [2]
  Odor intensity without Nefopam, note A: earthy: 2.5
[1]; [3]
  Odor intensity without Nefopam, note B: vetivert: 1.5

## CC1(C)CCC=C2C[C@@](C)(O)CC[C@H]21 [Ambrinol R, (2S, 4aS)-(−)-2,5,5-Trimethyl-1,2,3,4,4a,5,6,7-octahydro-naphthalen-2-ol]
[1]; [2]
  Odor intensity without Nefopam, note A: earthy: 1
[1]; [3]
  Odor intensity without Nefopam, note B: scatole: 3.5

## CN1CCO[C@@H](c2ccccc2)c2ccccc2C1 [(+)-Nefopam, (S)-5-methyl-1-phenyl-1,3,4,6-tetrahydro-2,5-benzoxazocine]
[1]; [5]
  Odor intensity of Geosmin with nefopam enantiomer as blocker, note A: earthy: 3
  Odor intensity of Geosmin with nefopam enantiomer as blocker, note B: camphoreous: 3

## CC1(O)CC2CCC1(C)C2(C)C (centres unmarked) [2-methylisoborneol, 1,2,7,7-Tetramethylbicyclo[2.2.1]heptan-2-ol]
[1]; [2]
  Odor intensity without Nefopam, note A: earthy: 3
[1]; [3]
  Odor intensity without Nefopam, note B: camphoreous: 0
Human nose
  Detection threshold (human nose): 25 ng/L

## CN1CCOC(c2ccccc2)c2ccccc2C1 (racemic) [Nefopam, (RS)-5-methyl-1-phenyl-1,3,4,6-tetrahydro-2,5-benzoxazocine]
[1]; [6]
  Odor intensity with Nefopam, 2-ethylfenchol note A: earthy: 0
  Odor intensity with Nefopam, 2-ethylfenchol note B: camphoreous: 3
[1]; [7]
  Odor intensity with Nefopam, 2-methylisoborneol note A: earthy: 0
  Odor intensity with Nefopam, 2-methylisoborneol note B: camphoreous: 2.5
[1]; [8]
  Odor intensity with Nefopam, Ambrinol R note A: earthy: 0.5
  Odor intensity with Nefopam, Ambrinol R note B: scatole: 3.5
[1]; [9]
  Odor intensity with Nefopam, Ambrinol S note A: earthy: 0.5
  Odor intensity with Nefopam, Ambrinol S note B: vetivert: 2
[1]; [10]
  Odor intensity with Nefopam, Ambrinol racemic note A: earthy: 0
  Odor intensity with Nefopam, Ambrinol racemic note B: α-pinene: 2.5
[1]; [11]
  Odor intensity with Nefopam, Geosmin note A: earthy: 1
  Odor intensity with Nefopam, Geosmin note B: camphoreous: 2.5
[1]; [12]
  Odor intensity with Nefopam, Huminol note A: earthy: 1
  Odor intensity with Nefopam, Huminol note B: camphoreous: 2
[1]; [13]
  Odor intensity with Nefopam, Methyl Geosmin note A: earthy: 0.5
  Odor intensity with Nefopam, Methyl Geosmin note B: α-pinene: 1.5
[1]; [14]
  Odor intensity with Nefopam, Patchouli Oil note A: earthy: 0.5
  Odor intensity with Nefopam, Patchouli Oil note B: α-pinene: 2.5
[1]; [15]
  Intensity of the other olfactory notes associated to the different compounds in the presence of racemic nefopam: not significantly decreased
  Typical earthy olfactory note associated with the tested compounds when smelled in the presence of racemic nefopam: strongly reduced

## CN1CCO[C@H](c2ccccc2)c2ccccc2C1 [(−)-Nefopam, (R)-5-methyl-1-phenyl-1,3,4,6-tetrahydro-2,5-benzoxazocine]
[1]; [5]
  Odor intensity of Geosmin with nefopam enantiomer as blocker, note A: earthy: 0
  Odor intensity of Geosmin with nefopam enantiomer as blocker, note B: camphoreous: 3

— patent US20220125983A1, “MALODOR COUNTERACTING COMPOSITION AND AGENT AND THE USE THEREOF” (CHEMCOM S.A., priority 2019, published 2022)
